Data: PubChem BioAssay (NCI)
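96-well plates; 48 h exposure; 5 concentrations. Endpoints by linear interpolation between flanking doses. Not reached: highest tested concentration assigned. TGI marks complete inhibition of growth.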

What was measured:
Assay in all cases: NCI-60 cell line screen, 48 h
A549 NSCLC = system: A549 NSCLC
PC-3 prostate = system: PC-3 prostate
DU-145 prostate = system: DU-145 prostate
MALME-3M melanoma = system: MALME-3M melanoma
SK-MEL-28 melanoma = system: SK-MEL-28 melanoma
IGROV1 ovarian = system: IGROV1 ovarian
SF-268 CNS = system: SF-268 CNS
LOX IMVI melanoma = system: LOX IMVI melanoma
EKVX NSCLC = system: EKVX NSCLC
TK-10 renal = system: TK-10 renal
NCI/ADR-RES ovarian = system: NCI/ADR-RES ovarian
MDA-MB-435 = system: MDA-MB-435
SK-OV-3 ovarian = system: SK-OV-3 ovarian
OVCAR-3 ovarian = system: OVCAR-3 ovarian
NCI-H226 lung = system: NCI-H226 lung
OVCAR-5 ovarian = system: OVCAR-5 ovarian
SK-MEL-2 melanoma = system: SK-MEL-2 melanoma
MOLT-4 leukemia = system: MOLT-4 leukemia
RPMI-8226 leukemia = system: RPMI-8226 leukemia
SNB-19 CNS = system: SNB-19 CNS
SF-295 CNS = system: SF-295 CNS
HS 578T breast = system: HS 578T breast
SNB-75 CNS = system: SNB-75 CNS
786-0 renal = system: 786-0 renal
HOP-92 NSCLC = system: HOP-92 NSCLC
K-562 leukemia = system: K-562 leukemia
UACC-62 melanoma = system: UACC-62 melanoma
ACHN renal = system: ACHN renal
SF-539 CNS = system: SF-539 CNS
M14 melanoma = system: M14 melanoma
SN12C renal = system: SN12C renal
NCI-H522 lung = system: NCI-H522 lung
OVCAR-8 ovarian = system: OVCAR-8 ovarian
HCT-15 colon = system: HCT-15 colon
MDA-MB-231 breast = system: MDA-MB-231 breast
BT-549 breast = system: BT-549 breast
OVCAR-4 ovarian = system: OVCAR-4 ovarian
A498 renal = system: A498 renal
KM12 colon = system: KM12 colon
U251 CNS = system: U251 CNS
UO-31 renal = system: UO-31 renal
MDA-N = system: MDA-N
HT29 colon = system: HT29 colon
UACC-257 melanoma = system: UACC-257 melanoma
SW-620 colon = system: SW-620 colon
NCI-H460 lung = system: NCI-H460 lung
HCT-116 colon = system: HCT-116 colon
HOP-62 NSCLC = system: HOP-62 NSCLC
RXF 393 renal = system: RXF 393 renal
CCRF-CEM leukemia = system: CCRF-CEM leukemia
SR leukemia = system: SR leukemia
SK-MEL-5 melanoma = system: SK-MEL-5 melanoma
MCF7 breast = system: MCF7 breast
HL-60(TB) leukemia = system: HL-60(TB) leukemia
T-47D breast = system: T-47D breast
NCI-H23 lung = system: NCI-H23 lung
HCC-2998 colon = system: HCC-2998 colon
CAKI-1 renal = system: CAKI-1 renal

## CC1=CC2=C(C#N)C(=O)OC2(C)C(c2ccccc2)C1 (stereo not given)
A549 NSCLC
  TGI: > 100 µM
PC-3 prostate
  TGI: > 100 µM
DU-145 prostate
  TGI: > 100 µM
MALME-3M melanoma
  TGI: > 100 µM
SK-MEL-28 melanoma
  TGI: > 100 µM
IGROV1 ovarian
  TGI: > 100 µM
SF-268 CNS
  TGI: > 100 µM
LOX IMVI melanoma
  TGI: > 100 µM
EKVX NSCLC
  TGI: > 100 µM
TK-10 renal
  TGI: > 100 µM
NCI/ADR-RES ovarian
  TGI: > 100 µM
MDA-MB-435
  TGI: > 100 µM
SK-OV-3 ovarian
  TGI: > 100 µM
OVCAR-3 ovarian
  TGI: > 100 µM
NCI-H226 lung
  TGI: > 100 µM
OVCAR-5 ovarian
  TGI: > 100 µM
SK-MEL-2 melanoma
  TGI: > 100 µM
MOLT-4 leukemia
  TGI: > 100 µM
RPMI-8226 leukemia
  TGI: > 100 µM
SNB-19 CNS
  TGI: > 100 µM
SF-295 CNS
  TGI: > 100 µM
HS 578T breast
  TGI: > 100 µM
SNB-75 CNS
  TGI: > 100 µM
786-0 renal
  TGI: > 100 µM
HOP-92 NSCLC
  TGI: > 100 µM
K-562 leukemia
  TGI: > 100 µM
UACC-62 melanoma
  TGI: > 100 µM
ACHN renal
  TGI: > 100 µM
SF-539 CNS
  TGI: > 100 µM
M14 melanoma
  TGI: > 100 µM
SN12C renal
  TGI: > 100 µM
NCI-H522 lung
  TGI: > 100 µM
OVCAR-8 ovarian
  TGI: > 100 µM
HCT-15 colon
  TGI: > 100 µM
MDA-MB-231 breast
  TGI: > 100 µM
BT-549 breast
  TGI: > 100 µM
OVCAR-4 ovarian
  TGI: > 100 µM
A498 renal
  TGI: > 100 µM
KM12 colon
  TGI: > 100 µM
U251 CNS
  TGI: > 100 µM
UO-31 renal
  TGI: > 100 µM
MDA-N
  TGI: > 100 µM
HT29 colon
  TGI: > 100 µM
UACC-257 melanoma
  TGI: > 100 µM
SW-620 colon
  TGI: > 100 µM
NCI-H460 lung
  TGI: > 100 µM
HCT-116 colon
  TGI: > 100 µM
HOP-62 NSCLC
  TGI: > 100 µM

## CCOc1cc(/C=C2\N=C(c3ccccc3)N(c3nc4ccccc4s3)C2=O)ccc1O
PC-3 prostate
  TGI: 79.4 µM
DU-145 prostate
  TGI: > 100 µM
RXF 393 renal
  TGI: > 100 µM
SK-MEL-28 melanoma
  TGI: > 100 µM
IGROV1 ovarian
  TGI: > 100 µM
SF-268 CNS
  TGI: > 100 µM
LOX IMVI melanoma
  TGI: > 100 µM
EKVX NSCLC
  TGI: > 100 µM
TK-10 renal
  TGI: > 100 µM
NCI/ADR-RES ovarian
  TGI: 67.8 µM
MDA-MB-435
  TGI: > 100 µM
SK-OV-3 ovarian
  TGI: > 100 µM
OVCAR-3 ovarian
  TGI: > 100 µM
NCI-H226 lung
  TGI: > 100 µM
OVCAR-5 ovarian
  TGI: > 100 µM
SK-MEL-2 melanoma
  TGI: 62.1 µM
MOLT-4 leukemia
  TGI: 58.9 µM
CCRF-CEM leukemia
  TGI: > 100 µM
RPMI-8226 leukemia
  TGI: 65.4 µM
SF-295 CNS
  TGI: > 100 µM
SR leukemia
  TGI: > 100 µM
SK-MEL-5 melanoma
  TGI: 41.4 µM
HS 578T breast
  TGI: 85.6 µM
SNB-75 CNS
  TGI: > 100 µM
786-0 renal
  TGI: > 100 µM
HOP-92 NSCLC
  TGI: > 100 µM
MCF7 breast
  TGI: > 100 µM
K-562 leukemia
  TGI: > 100 µM
HL-60(TB) leukemia
  TGI: 73.9 µM
ACHN renal
  TGI: > 100 µM
T-47D breast
  TGI: > 100 µM
SF-539 CNS
  TGI: > 100 µM
M14 melanoma
  TGI: > 100 µM
NCI-H23 lung
  TGI: 77.8 µM
HCC-2998 colon
  TGI: 97.3 µM
NCI-H522 lung
  TGI: 60 µM
CAKI-1 renal
  TGI: > 100 µM
OVCAR-8 ovarian
  TGI: > 100 µM
HCT-15 colon
  TGI: 82.5 µM
MDA-MB-231 breast
  TGI: > 100 µM
OVCAR-4 ovarian
  TGI: > 100 µM
A498 renal
  TGI: > 100 µM
KM12 colon
  TGI: > 100 µM
U251 CNS
  TGI: > 100 µM
UO-31 renal
  TGI: > 100 µM
MDA-N
  TGI: > 100 µM
HT29 colon
  TGI: > 100 µM
UACC-257 melanoma
  TGI: > 100 µM
SW-620 colon
  TGI: > 100 µM
NCI-H460 lung
  TGI: > 100 µM
HCT-116 colon
  TGI: > 100 µM
HOP-62 NSCLC
  TGI: > 100 µM
